According to US8344113B2, “Diagnostic tumor markers, drug screening for tumorigenesis inhibition, and compositions and methods for treatment of cancer” (Minerva Biotechnologies Corporation, priority 2000, dated 2013):

Target: T1, MGFR portion of the MUC1 receptor (His-PSMGFR) and ligand(s) in T47D lysate (Homo sapiens, UniProt P15941, R1131P)
T1 construct: made in house; host or cells: chemical synthesis (synthetic peptide)
T1 sequence (P15941 with tags, fused parts or gaps R1131P): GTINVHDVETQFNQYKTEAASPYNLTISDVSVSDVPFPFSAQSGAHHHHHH
Assay: Colloid color-change ligand binding assay with or without enzyme inhibitor
Assay type: biochemical
Conditions: T47D lysate treated with inhibitor, final concentration 3 mM
Protocol: To test the hypothesis that the MGFR portion of the MUC1 receptor is enzymatically modified prior to binding to its ligand(s), the drug screening assay described in Example 5a was performed in the presence or absence of an enzyme inhibitor, PMSF (phenylmethylsulfonyl fluoride; Sigma chemical Co. St. Louis Mo., USA). T47D cells, which are breast tumor cells that aberrantly express MUC1, were grown to 70% confluency, treated with trypsin to detach from the flask, and pelleted by centrifugation. A lysate was prepared as follows from the pellets of two T75 flasks. Cell pellets were resuspended in 300 μL phosphate buffer (10 mM sodium phosphate, 100 mM NaCl, pH 7.4). The lysate was divided into two parts. One aliquot of lysate was used as is. To the second aliquot was added 9 μL of a 100 mM stock solution to achieve a final concentration 3 mM. The lysates were frozen and thawed four times with 15 seconds of vigorous mixing after each thawing. Lysates were then pelleted by centrifugation and the supernatant collected. Lysates were diluted by adding 6.2 ml of phosphate buffer. The drug screening assay was then performed as described in Example 5a, with the exception that no drugs were added. Rather the ability of the ligand(s) in the lysate to bind to the MGFR in a multimeric way, which would result in the solution color to change to blue, was tested. […]

O=S(=O)(F)Cc1ccccc1 [PMSF, phenylmethylsulfonyl fluoride]
Solution color change (ligand binding to His-PSMGFR colloids): did not change color and remained pink
